Experimental findings from patent US6492428B1, “Compounds having MIF antagonist activity” (The Picower Institute for Medical Research, priority 2000, dated 2002) are described below.

“Also recorded” adds a separate entry of the source. Where two headings read alike, the source gives them in different places.

Test [1] deals with T1, human MIF (Homo sapiens, UniProt P14174).
T1 construct: made in house; host or cells: E. coli
T1 sequence (P14174 2-115 limits assumed): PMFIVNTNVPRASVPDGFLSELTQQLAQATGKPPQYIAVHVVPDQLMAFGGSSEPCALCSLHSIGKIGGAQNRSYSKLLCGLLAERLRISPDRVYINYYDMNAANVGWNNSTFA
Description: MIF dopachrome tautomerase enzyme inhibition assay. The test is classed as biochemical. As to conditions: for IC50: MIF 0.7 μg/ml treated 5 minutes, dopachrome methyl ester (1) substrate; for MIF enzyme inhibition activity (in words): dopachrome tautomerase assay; for effect on MIF enzymatic activity at doses equimolar to MIF monomer: higher MIF concentrations (approximately 0.1 mg/ml and above); for inhibition at 200 µM: read-out: % inhibition at 200 μM.

The next test concerns L6 rat myoblasts. Description: Fructose-2,6-bisphosphate (F2,6BP) induction assay. The following applies: for induction of F2,6BP production (in words): MIF conjugated with compound, 10 ng/ml; for F2,6BP production: murine MIF 10 ng/ml, untreated or pretreated (conjugated) with compound, control=100%. The test is classed as cell-based.
Test [2] deals with T1, human MIF. Description: Covalent enzyme modification (SDS-PAGE, MALDI MS, dialysis/gel filtration).
The target of test [3] is T1, human MIF. Description: MIF tautomerase inhibition in the presence of fetal bovine serum. In kind it is biochemical.
The target in another test is recombinant mouse MIF (Mus musculus, UniProt P34884). Description: Tautomerase enzyme inactivation of murine MIF before the bioassay.
Another test concerns anti-MIF antibodies. As to the kind of experiment: Cross-reactivity with anti-MIF antibodies (ELISA). In kind it is binding. The following applies: for recognition by anti-MIF antibodies (in words): MIF incubated with NAPQI (4) versus unmodified MIF. As to the method:
FIG. 7 illustrates the loss of immunological crossreactivity with anti-MIF antibodies following incubation of MIF with NAPQI (4).
(iii) Cross-reactivity with anti-MIF antibodies. […] Without being bound by mechanism, and in view of the lack of bioactivity of the MIF-NAPQI (4) conjugate in the above arachidonic acid release and F2,6BP induction assays, it is likely that NAPQI (4) conjugation induces distortion of the MIF peptide conformation. This distortion also renders the MIF-NAPQI (a) (4) conjugate non-crossreactive with anti-MIF Mab.
The presence of such structural changes was further explored by characterizing the binding of additional MIF-specific antibodies (Picower Institute clones XIV. 14.3, III.D.9 and XIV. 15.5, which differ in their epitope recognition and activity to inhibit biologically active MIF), using a standard ELISA technique. In a standardized sandwich ELISA specific for MIF Meinhardt et al., Endocrinology, 137:5090-5095, 1996), an equivalent amount of MIF-NAPQI (4) conjugate (as indicated by protein concentration) was recognized 7-fold less than purified recombinant MIF that had not been exposed to NAPQI (4) (FIG. 7). Again, without being bound by mechanism, this loss of cross-reactivity of MIF-NAPQI (4) was most likely due to remote structural changes in MIF induced by covalent attachment of NAPQI (4). These structural changes might, in turn, account for the lack of bioactivities of MIF-NAPQI (4) and MIF-N-acetyl-3-hydroxy-p-benzoquinone imine (6) conjugates in the F2,6BP induction assay, and for the lack of bioactivity of MIF-NAPQI (4) conjugate in the arachidonic acid release assay.
A general note: An ELISA detects its analyte on a solid surface through an enzyme-linked reagent.

The test system of a further test is NIH/3T3 cells. As to the kind of experiment: MIF-induced arachidonic acid release. The test is classed as cell-based. The following applies: cells labeled with 1 μM [14C]-arachidonic acid. As to the method: NIH/3T3 cells were labeled with 1 μM [^14C]-arachidonic acid. After overnight culture, the cells were washed extensively with PBS and then the appropriate samples of MIF or MIF-NAPQI (4) conjugate were added in duplicate. The release of arachidonic acid into the culture medium was then measured.
The effect of MIF-NAPQI (4) conjugate on arachidonic acid release was tested by adding equivalent amounts of either MIF or MIF-NAPQI (4) conjugate to NIH3/3T3 cell cultures that had been pre-equilibrated with radioactive arachidonate, followed by the measurement of arachidonic acid release by scintillation counting. Briefly, NIH/3T3 fibroblasts were labeled with 1 μM [^14C]-arachidonic acid. After overnight culture, the cells were washed extensively with PBS, and the appropriate samples of MIF or MIF-NAPQI (4) conjugate were added in duplicate. The release of arachidonic acid into medium was then measured as described previously (Mitchell et al., J. Biol. Chem., 274:18100-18106, 1999).

`CC(=O)N=C1C=C(C)C(=O)C(C)=C1` [Compound 8] displayed an IC50 on human MIF [1] of 120 µM.

For the molecule `O=C(O)C1=CC(=O)C(=O)C=C1` [Compound 14], inhibition on human MIF [1] was half-maximal at 4 µM (IC50).

Consider “iodoacetamide [Compound 17, reference compound]”, for which the “% inhibition at 500 μM” value at human MIF [1] (500 μM compound, MIF 0.7 μg/ml, 5 minutes) was 0% inhibition at 500 μM. In addition, the “MIF enzyme inhibition activity (in words)” value at human MIF [1] was “No inhibitory activity”.

On to `CC(=O)N=C1C=CC(=O)C(O)=C1` [Compound 6, N-acetyl-3-hydroxy-p-benzoquinone imine], for which, on human MIF [1], half-maximal inhibition (IC50) required 0.7 µM, the “MIF enzyme inhibition activity (in words)” value is listed as “potent inhibitors; also recorded: sub-micromolar” and the “effect on MIF enzymatic activity at doses equimolar to MIF monomer” value is “virtually eliminated”. For the same molecule, the enzyme activity lost on human MIF [1] (MIF 2.8 μM (0.1 mg/ml, 8.4 μM monomer), compound at 7 μM (0.83 equivalents based on monomer)) is listed as 93%. For the same molecule, the “enzyme activity lost (in words)” value at human MIF [1] (MIF 0.1 mg/ml, 1.7 equivalents/monomer) was “All”. For the same molecule, the “more potent than dihydroquinone-like analog 5” value at human MIF [1] (ratio of IC50 values versus compound 5) is “more than 715 fold”. In the test on L6 rat myoblasts, the “induction of F2,6BP production (in words)” value was “fail to induce” and the “F2,6BP production” value is recorded as 105 % of control.

In the case of `CC(=O)N=C1C=CC(=O)C=C1` [Compound 4, N-Acetyl-p-benzoquinone imine], the “restoration of enzymatic activity by dialyzing or gel filtering inactivated MIF” value on human MIF [2] (MIF inactivated with compound, data not shown) is “not possible to restore enzymatic activity”. The “chemical modification of MIF (in words)” value on human MIF [2] (SDS-PAGE and MALDI mass spectra of treated MIF) is on record as “stable, covalent conjugates”. Besides, at human MIF [1], the “inhibition of enzymatic activity” value is on record as 69% and the “MIF enzyme inhibition activity (in words)” value was “potent inhibitor”. On human MIF [1] (read-out: enzyme inhibition), the inhibition at 49.5 µM amounted to 37%, the inhibition at 190 µM was 94% and the inhibition at 500 µM worked out at 100%. For the same molecule, the “fetal bovine serum concentration at which loss in inhibitory activity became detectable” value on human MIF [3] (MIF 0.72 μg/ml, compound 0.2 mM) came out at 25%. Also, on human MIF [3] (MIF 0.72 μg/ml, compound 0.2 mM, 20 minutes), the “inhibition of MIF in the presence of serum proteins (in words)” value is “occurred even in the presence of serum proteins”. Further, the inhibition at 200 µM on human MIF [3] (read-out: residual inhibitory activity) was 31%. In addition, on recombinant mouse MIF (mouse MIF pretreated with 167 μM compound), the “inhibition of enzyme activity / enzyme inactivation” value is on record as 96%. Further, the inhibition at 167 µM on recombinant mouse MIF (read-out: inhibition of enzyme activity / enzyme inactivation, mouse MIF pretreated with 167 μM compound) was determined as 98%. In the test on L6 rat myoblasts, the “induction of F2,6BP production (in words)” value is “fail to induce” and the “F2,6BP production” value is given as 94 % of control.

Turning to `O=C(O)/C=C/c1ccc(O)c(O)c1` [Compound 15], the “MIF enzyme inhibition activity (in words)” value at human MIF [1] is on record as “little, if any”.

Take `CC(=O)N=C1C=CC(=O)C(C)=C1` [Compound 7]: half-maximal inhibition on human MIF [1] (IC50) was put at 35 µM.

With `O=C(O)/C=C/C1=CC(=O)C(=O)C=C1` [Compound 16], at human MIF [1], it took 0.3 µM to reach half-maximal inhibition (IC50), the “MIF enzyme inhibition activity (in words)” value is reported as “sub-micromolar” and the “effect on MIF enzymatic activity at doses equimolar to MIF monomer” value is on record as “virtually eliminated”.

`CC(=O)Nc1ccc(O)c(O)c1` [Compound 5]: at human MIF [1], it took 500 µM to reach half-maximal inhibition (IC50) and the “MIF enzyme inhibition activity (in words)” value is “little, if any”.

For `O=C(O)c1ccc(O)c(O)c1` [Compound 13], on human MIF [1], the “MIF enzyme inhibition activity (in words)” value is given as “little, if any” and the inhibition at 200 µM was 24%.

Take `CC(=O)N=C1C(C)=CC(=O)C=C1C` [Compound 9]: at human MIF [1], the IC50 was found to be 200 µM.

The molecule `COC1=CC(=NC(C)=O)C=CC1=O` [Compound 11] had an IC50 against human MIF [1] of 25 µM.

As for `COc1cc(NC(C)=O)ccc1O` [Compound 10], on human MIF [1], the “MIF enzyme inhibition activity (in words)” value is recorded as “little, if any”. Also, the inhibition at 200 µM at human MIF [1] (200 μM compound, MIF 0.7 μg/ml, 5 minutes) stood at 0%.

As for `CCN1C(=O)C=CC1=O` [Compound 18, N-ethylmaleimide, reference compound], on human MIF [1], the “MIF enzyme inhibition activity (in words)” value is listed as “No inhibitory activity”. The inhibition at 500 µM on human MIF [1] (read-out: % inhibition at 500 μM) is 0%.

As to `CC(=O)Nc1ccc(O)cc1` [Compound 3, acetaminophen, reference compound], the IC50 against human MIF [1] amounted to 10000 µM.

B1: MIF-NAPQI (4) conjugate: stable covalent conjugate formed when MIF is treated with NAPQI (4) (conjugate, UniProt P14174 2-115, looked up)
Macrophage migration …: T1 sequence (P14174 2-115 limits assumed)
modifications: covalent NAPQI adduct
In the case of B1, the “recognition by anti-MIF antibodies (in words)” value in the test on anti-MIF antibodies was “fail to recognize”; in the test on anti-MIF antibodies (listed as MIF-NAPQI conjugate), “significantly less”. For the same molecule, in the test on anti-MIF antibodies (equivalent amount by protein concentration, standardized sandwich ELISA specific for MIF), the “recognition in sandwich ELISA, less than unmodified recombinant MIF” value was found to be 7 fold. The “induction of F2,6BP production (in words)” value in the test with L6 rat myoblasts is given as “failed to induce”. For the same molecule, the “induction of arachidonic acid release (in words)” value in the test with NIH/3T3 cells is “did not induce; also recorded: does not induce”. In addition, in the test on NIH/3T3 cells (equivalent amounts of MIF or conjugate), the “arachidonic acid released into culture supernatant relative to cultures treated with MIF” value is given as “less than 1/10”.

Broadly, the IC50 is the point on the concentration scale where inhibition reaches its midpoint. A lower IC50 goes with greater potency in that assay.
